Laboratory results from patent US10765674B2, “Prevention of HIV-infection” (Janssen Sciences Ireland Unlimited Company, priority 2005, dated 2020).

Assay: Tissue concentrations of TMC278 in beagle dog (biopsy on day 232) after single intramuscular administration
Format: in vivo, beagle dogs
Conditions: dog No. 16924, day 232 after single IM 2.5 mg/kg, aqueous 30% DMA/50% PEG400 solution; for concentration at 232 day: male, beagle, intramuscular
Method: On day 232 post-dose, a biopsy was performed (dog No. 16924 only) on the iliac lymph node (at the side of injection), on a muscle from the non-injected hind leg and on a muscle at the side of injection after ultrasonographic examination. All tissue samples were protected from light as much as possible and stored on melting ice. All samples were protected from light and stored at ≤−18° C. Finally, an additional blood sample was collected on day 272. This sample was processed and analysed similarly to the other blood samples. The concentration of TMC278 in dog tissue samples was also determined by a qualified research LC-MS/MS method. Tissues samples were homogenized with a 10-fold dilution in Milli-Q water by means of an Ultra-Turrax. The tissue homogenates (200 μl aliquot) were extracted by adding of 600 μl methanol (containing […]). After vortexing and centrifugation, the supernatant was transferred to an HPLC vial and 20 μl aliquots were injected. The LC and the MS conditions were the same as described above. The lower limit of quantification was 10.0 ng/g tissue. Samples were protected from light during the bioanalytical analysis.

[1] = muscle at the side of injection
[2] = muscle from the non-injected hind leg

concentration at 232 day (iliac lymph node at the side of injection): 72.6 ng/g
concentration at 232 day [1]: < 10 ng/g
concentration at 232 day [2]: < 10 ng/g
tissue concentration [1]: <10.0 ng/g
tissue concentration [2]: <10.0 ng/g
SMILES: Cc1cc(C=CC#N)cc(C)c1Nc1ccnc(Nc2ccc(C#N)cc2)n1 [TMC278, 4-[[4-[[4-(2-cyanoethenyl)-2,6-dimethylphenyl]amino]-2-pyrimidinyl]-amino]benzonitrile]
